As usually defined, the EC50 is the concentration that produces a half-maximal response. Lower therefore signals an effect from little substance.

The subject of this test is HIV-1. In words: Single-round infectious HIV-1 luciferase reporter virus infection of HeLa CD4 cells. The following applies: Human immunodeficiency virus 1, HeLa, 72 h. It is filed as cell-based. How it is done:
• Virus production—Human embryonic Kidney cell line, 293T, was propagated in Dulbecco's Modified Eagle Medium (Invitrogen, Carlsbad, Calif.) containing 10% fetal Bovine serum (FBS, Sigma, St. Louis, Mo.). • Virus infection—Human epithelial cell line, HeLa, expressing the HIV-1 receptor CD4 was propagated in Dulbecco's Modified Eagle Medium (Invitrogen, Carlsbad, Calif.) containing 10% fetal Bovine serum (FBS, Sigma, St. Louis , Mo.) and supplemented with 0.2 mg/mL Geneticin (Invitrogen, Carlsbad, Calif.).
Transfections were performed using lipofectAMINE PLUS reagent as described by the manufacturer (Invitrogen, Carlsbad, Calif.).
• 1. […] Compound was added in a 2 μl dimethylsulfoxide solution, so that the final assay concentration would be ≦10 μM. • 3. 100 μl of single-round infectious reporter virus in Dulbecco's Modified Eagle Medium was then added to the plated cells and compound at an approximate multiplicity of infection (MOI) of 0.01, resulting in a final volume of 200 μl per well. • 4. Virally-infected cells were incubated at 37 degrees Celsius, in a CO2 incubator, and harvested 72 h after infection. • 5. Viral infection was monitored by measuring luciferase expression from viral DNA in the infected cells using a luciferase reporter gene assay kit, as described by the manufacturer (Roche Molecular Biochemicals, Indianapolis, Ind.). Infected cell supernatants were removed and 50 μl of lysis buffer was added per well. After 15 minutes, 50 μl of freshly-reconstituted luciferase assay reagent was added per well. Luciferase activity was then quantified by measuring luminescence using a Wallac microbeta scintillation counter. • 6. […] An EC50 provides a method for comparing the antiviral potency of the compounds of this disclosure. The effective concentration for fifty percent inhibition (EC50) was calculated with the Microsoft Excel Xlfit curve fitting software. For each compound, curves were generated from percent inhibition calculated at 10 different concentrations by using a four parameter logistic model (model 205).
Compound `O=C(C(=O)N1CCN(c2c(N3CCSCC3)c(=O)c2=O)CC1)c1c[nH]c2cccc(F)c12` [Number 21] gave an EC50 greater than 5000 nM.
As for `CCN(Cc1ccccc1)c1c(N2CCN(C(=O)C(=O)c3c[nH]c4cccc(F)c34)CC2)c(=O)c1=O` [Number 22], the figure is greater than 5000 nM.
For the compound `O=C(C(=O)N1CCN(c2c(N3CCc4ccccc4C3)c(=O)c2=O)CC1)c1c[nH]c2cccc(F)c12` [Number 23], the EC50 was greater than 5000 nM.
Regarding `CN1CCN(c2c(N3CCN(C(=O)C(=O)c4c[nH]c5cccc(F)c45)CC3)c(=O)c2=O)CC1` [Number 24], the EC50 is greater than 5000 nM.
Take `CCCN(CCC)c1c(N2CCN(C(=O)C(=O)c3c[nH]c4cccc(F)c34)CC2)c(=O)c1=O` [Number 25]: the EC50 is greater than 5000 nM.
For `O=C(C(=O)N1CCN(c2c(N3CCC4(CCCC4)CC3)c(=O)c2=O)CC1)c1c[nH]c2cccc(F)c12` [Number 26], the EC50 is greater than 5000 nM.
As for `O=C(C(=O)N1CCN(c2c(-c3cccs3)c(=O)c2=O)CC1)c1c[nH]c2cccc(F)c12` [Number 27], the figure is 50 to 500 nM.
Compound `O=C(C(=O)N1CCN(c2c(-c3ccco3)c(=O)c2=O)CC1)c1c[nH]c2cccc(F)c12` [Number 28] gave an EC50 of 500 to 5000 nM.
As for `COc1ncc(OC)c2c(C(=O)C(=O)N3CCN(c4c(-c5ccccc5)c(=O)c4=O)CC3)c[nH]c12` [Number 29], the figure is 50 to 500 nM.
As for `COc1ncc(OC)c2c(C(=O)C(=O)N3CCN(c4c(-c5cccs5)c(=O)c4=O)CC3)c[nH]c12` [Number 30], the figure is 50 to 500 nM; as for `COc1cnc(Cl)c2[nH]cc(C(=O)C(=O)N3CCN(c4c(-c5ccccc5)c(=O)c4=O)CC3)c12` [Number 31], 50 to 500 nM; as for `COc1ncc(OC)c2c(C(=O)C(=O)N3CCN(c4c(-c5ccccc5)c(=O)c4=O)C[C@H]3C)c[nH]c12` [Number 32], 50 to 500 nM.
To `COc1ncc(OC)c2c(C(=O)C(=O)N3CCN(c4c(-c5ccccc5)c(=O)c4=O)C[C@@H]3C)c[nH]c12` [Number 33] belongs 50 to 500 nM; to `COc1cnc(Br)c2[nH]cc(C(=O)C(=O)N3CCN(c4c(-c5ccccc5)c(=O)c4=O)CC3)c12` [Number 34], 50 to 500 nM; to `COc1cnc(-c2cnccn2)c2[nH]cc(C(=O)C(=O)N3CCN(c4c(-c5ccccc5)c(=O)c4=O)CC3)c12` [Number 35], 50 to 500 nM.
Take `COc1cnc(-n2cncn2)c2[nH]cc(C(=O)C(=O)N3CCN(c4c(-c5ccccc5)c(=O)c4=O)CC3)c12` [Number 36]: the EC50 lay in the range of 50 to 500 nM.
As for `COc1ncc(OC)c2c(C(=O)C(=O)N3CCN(c4c(-c5ncco5)c(=O)c4=O)CC3)c[nH]c12` [Number 37], the EC50 was in the range of 500 to 5000 nM.
As to `COc1ncc(OC)c2c(C(=O)C(=O)N3CCN(c4c(-c5ccccc5)c(=O)c4=O)[C@@H](C)C3)c[nH]c12` [Number 38], the EC50 was 50 to 500 nM.
As for `COc1ncc(OC)c2c(C(=O)C(=O)N3CCN(c4c(-c5ccccc5)c(=O)c4=O)[C@H](C)C3)c[nH]c12` [Number 39], the figure is 50 to 500 nM; as for `COc1cnc(-n2ccc(C)n2)c2[nH]cc(C(=O)C(=O)N3CCN(c4c(-c5ccccc5)c(=O)c4=O)CC3)c12` [Number 40], 50 to 500 nM; as for `COc1ncc(OC)c2c(C(=O)C(=O)N3CCN(c4c(-c5ccc(F)cc5)c(=O)c4=O)CC3)c[nH]c12` [Number 41], 50 to 500 nM.
As for `COc1cccc(-c2c(N3CCN(C(=O)C(=O)c4c[nH]c5c(OC)ncc(OC)c45)CC3)c(=O)c2=O)c1` [Number 42], the figure is 50 to 500 nM; as for `COc1ncc(OC)c2c(C(=O)C(=O)N3CCN(c4c(-c5nccs5)c(=O)c4=O)CC3)c[nH]c12` [Number 43], 500 to 5000 nM.

Source of the values: patent US7501419B2, “4-Squarylpiperazine derivatives as antiviral agents” (priority 2006, dated 2009).
